Molecular target: T1, F508del (Homo sapiens, UniProt P13569, DEL508-508)
T1 construct: expressed in transfected cells
Assay: Protocol 1: membrane potential optical assay (FLIPR III, voltage sensing dye), identification of potentiator compounds
Type: cell-based
Settings: Table 3, compounds of Table 1
Summary of the method: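 NIH3T3 F508del cells, 27° C × 24 hrs; compound/DMSO pretreat → redistribution dye load → single forskolin addition with Cl⁻ gradient (gluconate-substituted bath, HEPES pH 7.4). FLIPR III membrane-potential fluorescence read.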

T1 sequence (P13569 with tags, fused parts or gaps DEL508-508): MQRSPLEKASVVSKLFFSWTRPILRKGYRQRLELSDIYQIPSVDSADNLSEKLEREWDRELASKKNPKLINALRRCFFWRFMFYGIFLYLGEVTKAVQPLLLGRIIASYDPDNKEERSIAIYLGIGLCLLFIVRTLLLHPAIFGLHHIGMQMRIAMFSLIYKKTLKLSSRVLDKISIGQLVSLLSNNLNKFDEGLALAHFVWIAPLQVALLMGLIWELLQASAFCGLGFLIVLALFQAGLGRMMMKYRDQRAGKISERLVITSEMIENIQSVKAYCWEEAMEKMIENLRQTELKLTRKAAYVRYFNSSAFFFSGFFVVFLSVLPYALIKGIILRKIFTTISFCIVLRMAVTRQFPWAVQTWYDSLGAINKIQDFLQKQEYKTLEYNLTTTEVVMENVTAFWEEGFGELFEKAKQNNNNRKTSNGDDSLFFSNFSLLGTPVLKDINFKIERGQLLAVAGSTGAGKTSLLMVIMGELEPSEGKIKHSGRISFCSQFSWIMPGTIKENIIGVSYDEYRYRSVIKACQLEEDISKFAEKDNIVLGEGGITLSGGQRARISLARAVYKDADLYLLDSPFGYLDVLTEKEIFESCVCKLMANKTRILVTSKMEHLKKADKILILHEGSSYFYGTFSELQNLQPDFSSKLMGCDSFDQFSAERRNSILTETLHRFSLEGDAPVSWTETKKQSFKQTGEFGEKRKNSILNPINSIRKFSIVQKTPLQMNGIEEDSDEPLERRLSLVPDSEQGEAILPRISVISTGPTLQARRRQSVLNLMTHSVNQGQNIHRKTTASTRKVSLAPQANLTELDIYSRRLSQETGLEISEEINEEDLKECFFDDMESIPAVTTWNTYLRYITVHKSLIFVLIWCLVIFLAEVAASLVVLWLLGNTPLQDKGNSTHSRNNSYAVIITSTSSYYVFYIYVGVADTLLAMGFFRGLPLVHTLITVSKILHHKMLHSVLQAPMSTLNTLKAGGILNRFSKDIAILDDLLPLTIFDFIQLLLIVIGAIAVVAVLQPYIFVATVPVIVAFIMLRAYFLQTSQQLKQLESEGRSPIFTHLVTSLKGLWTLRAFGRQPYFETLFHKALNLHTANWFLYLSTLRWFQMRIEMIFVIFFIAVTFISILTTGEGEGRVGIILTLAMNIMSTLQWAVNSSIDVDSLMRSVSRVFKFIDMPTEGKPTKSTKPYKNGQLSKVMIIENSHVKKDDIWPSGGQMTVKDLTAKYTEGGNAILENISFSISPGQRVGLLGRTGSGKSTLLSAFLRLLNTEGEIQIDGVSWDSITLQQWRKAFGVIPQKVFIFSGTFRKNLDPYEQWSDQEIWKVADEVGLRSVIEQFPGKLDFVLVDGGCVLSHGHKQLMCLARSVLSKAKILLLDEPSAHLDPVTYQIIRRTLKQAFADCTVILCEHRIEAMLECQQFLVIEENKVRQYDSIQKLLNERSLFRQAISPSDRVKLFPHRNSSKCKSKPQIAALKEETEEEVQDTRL

SMILES	EC30
C[C@@H]1CN(c2nc(C3=CCCCO3)ccc2C(=O)NS(=O)(=O)c2cccc(N)n2)C(C)(C)C1 [Compound 1438, N-[(6-amino-2-pyridyl)sulfonyl]-6-(3,4-dihydro-2H-pyran-6-yl)-2-[(4S)-2,2,4-trimethylpyrrolidin-1-yl]pyridine-3-carboxamide]	+++ (“+++” means <3 uM)
CC(C)COc1cc(F)cc(-c2ccc(C(=O)NS(=O)(=O)c3cccc(N)n3)c(OCC3(C)COC3)n2)c1 [Compound 824, N-[(6-amino-2-pyridyl)sulfonyl]-6-(3-fluoro-5-isobutoxy-phenyl)-2-[(3-methyloxetan-3-yl)methoxy]pyridine-3-carboxamide]	++ (“++” means between 3 uM and 10 uM)
CC(C)COc1cc(F)cc(-c2ccc(C(=O)NS(=O)(=O)c3ccc(OCc4ccccc4)c(N)n3)c(N3C[C@@H](C)CC3(C)C)n2)c1 [Compound 1429, N-[(6-amino-5-benzyloxy-2-pyridyl)sulfonyl]-6-(3-fluoro-5-isobutoxy-phenyl)-2-[(4S)-2,2,4-trimethylpyrrolidin-1-yl]pyridine-3-carboxamide]	+++ (“+++” means <3 uM)
C[C@@H]1CN(c2nc(C(C)(C)C)c(C3=CCC(C(F)(F)F)CC3)cc2C(=O)NS(=O)(=O)c2cccc(N)n2)C(C)(C)C1 (stereo partly drawn) [Compound 1380, N-[(6-amino-2-pyridyl)sulfonyl]-6-tert-butyl-5-[4-(trifluoromethyl)cyclohexen-1-yl]-2-[(4S)-2,2,4-trimethylpyrrolidin-1-yl]pyridine-3-carboxamide]	+++ (“+++” means <3 uM)
CC(C)COc1cc(F)cc(-c2ccc(C(=O)NS(=O)(=O)c3cccc(N)n3)c(OCCc3ccccn3)n2)c1 [Compound 1625, N-[(6-amino-2-pyridyl)sulfonyl]-6-(3-fluoro-5-isobutoxy-phenyl)-2-[2-(2-pyridyl)ethoxy]pyridine-3-carboxamide]	++ (“++” means between 3 uM and 10 uM)
Cc1ccc(OCC(C)C)nc1-c1ccc(C(=O)NS(=O)(=O)c2cccc(N)n2)c(N2CC(C)CC2(C)C)n1 (stereo not shown) [Compound 1659, N-[(6-amino-2-pyridyl)sulfonyl]-6-(6-isobutoxy-3-methyl-2-pyridyl)-2-(2,2,4-trimethylpyrrolidin-1-yl)pyridine-3-carboxamide]	+++ (“+++” means <3 uM)
CC1CN(c2ncccc2C(=O)NS(=O)(=O)c2cccc(Oc3ccc(F)cc3)n2)C(C)(C)C1 (stereo not shown) [Compound 1813, N—[[6-(4-fluorophenoxy)-2-pyridyl]sulfonyl]-2-(2,2,4-trimethylpyrrolidin-1-yl)pyridine-3-carboxamide]	+++ (“+++” means <3 uM)
CC(C)COc1cc(F)cc(-c2ccc(C(=O)NS(=O)(=O)c3cccc(N)n3)c(N3CCC(C)(C)CC3)n2)c1 [Compound 1279, N-[(6-amino-2-pyridyl)sulfonyl]-2-(4,4-dimethyl-1-piperidyl)-6-(3-fluoro-5-isobutoxy-phenyl)pyridine-3-carboxamide]	+++ (“+++” means <3 uM)
CCC1CCN(c2nc(-c3cc(F)cc(OCC(C)C)c3)ccc2C(=O)NS(=O)(=O)c2ccn[nH]2)CC1 [Compound 1030, 2-(4-ethyl-1-piperidyl)-6-(3-fluoro-5-isobutoxy-phenyl)-N-(1H-pyrazol-5-ylsulfonyl)pyridine-3-carboxamide]	+++ (“+++” means <3 uM)
CC(C)=C(C)c1ccc(C(=O)NS(=O)(=O)c2cccc(N)n2)c(N2C[C@@H](C)CC2(C)C)n1 [Compound 1510, N-[(6-amino-2-pyridyl)sulfonyl]-6-(1,2-dimethylprop-1-enyl)-2-[(4S)-2,2,4-trimethylpyrrolidin-1-yl]pyridine-3-carboxamide]	+++ (“+++” means <3 uM)
CC(C)COc1cc(F)cc(-c2ccc(C(=O)NS(=O)(=O)c3cccc(N)n3)c(N3CC(C)CCC3(C)C)n2)c1 (stereo not shown) [Compound 1995, N-[(6-amino-2-pyridyl)sulfonyl]-6-(3-fluoro-5-isobutoxy-phenyl)-2-(2,2,5-trimethyl-1-piperidyl)pyridine-3-carboxamide]	+++ (“+++” means <3 uM)
CC(C)COc1cc(F)cc(-c2ccc(C(=O)NS(=O)(=O)c3cccnc3N)c(N3C[C@@H](C)CC3(C)C)n2)c1 [Compound 1593, N-[(2-amino-3-pyridyl)sulfonyl]-6-(3-fluoro-5-isobutoxy-phenyl)-2-[(4S)-2,2,4-trimethylpyrrolidin-1-yl]pyridine-3-carboxamide]	+++ (“+++” means <3 uM)
COc1cc(-c2ccc(C(=O)NS(=O)(=O)c3ccc[nH]c3=O)c(N3C[C@@H](C)CC3(C)C)n2)ccc1F [Compound 1780, 6-(4-fluoro-3-methoxy-phenyl)-N-[(2-oxo-1H-pyridin-3-yl)sulfonyl]-2-[(4S)-2,2,4-trimethylpyrrolidin-1-yl]pyridine-3-carboxamide]	++ (“++” means between 3 uM and 10 uM)
Cc1cc(C)c(CN2Cc3ccccc3C2(C)C(=O)NS(=O)(=O)c2cccc(N)c2)c(C)c1 (stereo not shown) [Compound 1273, N-(3-aminophenyl)sulfonyl-1-methyl-2-[(2,4,6-trimethylphenyl)methyl]isoindoline-1-carboxamide]	+++ (“+++” means <3 uM)
CC(C)COc1cc(F)cc(-c2ccc(C(=O)NS(=O)(=O)c3cccc(N)n3)c(N3CC4(CC4)CC3(C)C)n2)c1 [Compound 1746, N-[(6-amino-2-pyridyl)sulfonyl]-2-(5,5-dimethyl-6-azaspiro[2.4]heptan-6-yl)-6-(3-fluoro-5-isobutoxy-phenyl)pyridine-3-carboxamide]	+++ (“+++” means <3 uM)

The remaining lines, values ahead:

EC30	SMILES
++ (“++” means between 3 uM and 10 uM)	Cc1ccc(-c2ccc(C(=O)NS(=O)(=O)c3ccc[nH]c3=O)c(Oc3ccc(C)cc3C)n2)cc1 [Compound 1129, 2-(2,4-dimethylphenoxy)-N-[(2-oxo-1H-pyridin-3-yl)sulfonyl]-6-(p-tolyl)pyridine-3-carboxamide]
++ (“++” means between 3 uM and 10 uM)	Cc1ccc(-c2nc(-c3cc(F)cc(OC(C)C)c3)ccc2C(=O)NS(=O)(=O)c2nccnc2N)cc1 [Compound 1351, N-(3-aminopyrazin-2-yl)sulfonyl-6-(3-fluoro-5-isopropoxy-phenyl)-2-(p-tolyl)pyridine-3-carboxamide]
+++ (“+++” means <3 uM)	CC(C)Oc1ccc(-c2ccc(C(=O)NS(=O)(=O)c3cccc(N)n3)c(N3CCC(OCc4ccccc4)CC3)n2)cn1 [Compound 1012, N-[(6-amino-2-pyridyl)sulfonyl]-2-(4-benzyloxy-1-piperidyl)-6-(6-isopropoxy-3-pyridyl)pyridine-3-carboxamide]
+++ (“+++” means <3 uM)	COc1ccccc1COc1cccc(S(=O)(=O)NC(=O)c2cccnc2N2CC(C)CC2(C)C)n1 (stereo not shown) [Compound 1965, N-[[6-[(2-methoxyphenyl)methoxy]-2-pyridyl]sulfonyl]-2-(2,2,4-trimethylpyrrolidin-1-yl)pyridine-3-carboxamide]
+++ (“+++” means <3 uM)	Cc1cccc(-c2ccc(C(=O)NS(=O)(=O)c3cccnc3N)c(N3C[C@@H](C)CC3(C)C)n2)c1 [Compound 1829, N-[(2-amino-3-pyridyl)sulfonyl]-6-(m-tolyl)-2-[(4S)-2,2,4-trimethylpyrrolidin-1-yl]pyridine-3-carboxamide]
++ (“++” means between 3 uM and 10 uM)	Cc1cc(C)c(Oc2nc(-c3cc(C)nn3C)ccc2C(=O)NS(=O)(=O)c2cccc(N)n2)c(C)c1 [Compound 938, N-[(6-amino-2-pyridyl)sulfonyl]-6-(2,5-dimethylpyrazol-3-yl)-2-(2,4,6-trimethylphenoxy)pyridine-3-carboxamide]
++ (“++” means between 3 uM and 10 uM)	COc1cccc(OC)c1-c1ccc(C(=O)NS(=O)(=O)c2cccc(N)n2)c(Oc2c(C)cc(C)cc2C)n1 [Compound 1326, N-[(6-amino-2-pyridyl)sulfonyl]-6-(2,6-dimethoxyphenyl)-2-(2,4,6-trimethylphenoxy)pyridine-3-carboxamide]
++ (“++” means between 3 uM and 10 uM)	CC(C)Oc1ccc(-c2ccc(C(=O)NS(=O)(=O)c3cccc(N)n3)c(N3Cc4ccccc4C3)n2)cn1 [Compound 1072, N-[(6-amino-2-pyridyl)sulfonyl]-2-isoindolin-2-yl-6-(6-isopropoxy-3-pyridyl)pyridine-3-carboxamide]
+++ (“+++” means <3 uM)	CC(C)Cc1ccnn1-c1ccc(C(=O)NS(=O)(=O)c2cccc(N)n2)c(N2C[C@@H](C)CC2(C)C)n1 [Compound 1431, N-[(6-amino-2-pyridyl)sulfonyl]-6-(5-isobutylpyrazol-1-yl)-2-[(4S)-2,2,4-trimethylpyrrolidin-1-yl]pyridine-3-carboxamide]
+++ (“+++” means <3 uM)	CC(C)Oc1ccc(-c2ccc(C(=O)NS(=O)(=O)c3cccc(N)n3)c(N3C[C@H](C)C[C@H](C)C3)n2)cn1 [Compound 1145, N-[(6-amino-2-pyridyl)sulfonyl]-2-[(3R,5S)-3,5-dimethyl-1-piperidyl]-6-(6-isopropoxy-3-pyridyl)pyridine-3-carboxamide]
+++ (“+++” means <3 uM)	C[C@@H]1CC[C@H](C)N1c1nc(-c2ccc(OCC(C)(C)C)nc2)ccc1C(=O)NS(=O)(=O)c1cccc(N)n1 [Compound 1270, N-[(6-amino-2-pyridyl)sulfonyl]-6-[6-(2,2-dimethylpropoxy)-3-pyridyl]-2-[(2S,5R)-2,5-dimethylpyrrolidin-1-yl]pyridine-3-carboxamide]
+++ (“+++” means <3 uM)	Cc1cc(C)c(Oc2nc(-c3ccccc3)cc(C)c2C(=O)NS(=O)(=O)c2cccc(N)n2)c(C)c1 [Compound 1102, N-[(6-amino-2-pyridyl)sulfonyl]-4-methyl-6-phenyl-2-(2,4,6-trimethylphenoxy)pyridine-3-carboxamide]
++ (“++” means between 3 uM and 10 uM)	CC(C)Oc1ccc(-c2nc(N3C[C@@H](C)CC3(C)C)ccc2C(=O)NS(=O)(=O)c2cccc(N)n2)cn1 [Compound 1436, N-[(6-amino-2-pyridyl)sulfonyl]-2-(6-isopropoxy-3-pyridyl)-6-[(4S)-2,2,4-trimethylpyrrolidin-1-yl]pyridine-3-carboxamide]

Source: patent publication US10758534B2 (Vertex Pharmaceuticals Incorporated, priority 2014, dated 2020)
